Assay results: patent US20140106967A1, “AUXIN PLANT GROWTH REGULATORS” (The Governors of The University of Alberta, priority 2011, published 2014)

System: 'Harvest HRS'-Spring hard-red wheat
Test: Wheat growth chamber experiment, with or without heat stress (Tables W2, W3)
Assay type: in vivo, Triticum aestivum
Experimental: In another experiment, seeds of the wheat cultivar Harvest HRS were planted at an approximate depth of 1.5 cm in 5 inch square plastic pots (6 inch pot depth; 3 seeds per pot) in 1:1 Sunshine #4 potting mix (Sun Gro Horticulture, Vancouver, Canada) and sand. The seedlings were thinned to one seedling per pot approximately 2 weeks after seeding. Plants were grown in a Conviron growth chamber maintained at 24° C. light/20° C. dark (16 hours light/8 hours dark photoperiod; using 54W/835/HO high fluorescent bulbs [Phillips, Holland] with an average photon flux density of 540 μE m^−2s^−2. Plant were fertilized with 175 ppm 20-20-20 (N:P:K) every 3 to 4 days.
Aqueous solutions of 4-ME-IAA at 1×10^−6, 1×10^−5, or 1×10^−4 M in 0.1% (v/v) Tween 80 or a control solution (0.1% [v/v] Tween 80) were applied (sprayed on plant to cover) when the majority of the plants were at the BBCH scale 45 developmental stage (late boot stage where the flag leaf sheath [boot] is swollen with the inflorescence, but the inflorescence has not emerged from the boot). The experiment was arranged in a completely randomized design within the growth chamber.
The heat stress treatment was imposed by moving plants to receive the heat stress to a different growth chamber ((heat stress chamber) for 6 days. In the heat stress chamber, the light cycle began at 7:00 hours at a 24° C. air temperature. The heat treatment began at 11:00 hours (33° C. air temperature) and was maintained for 6 hours (until 17:00 hours). Following the heat treatment, the remainder of the light cycle was maintained at a 24° C. air temperature. The dark cycle (began at 23:00 hours) was maintained at 20° C. The photoperiod was 16 h light/8 h dark at an average photon flux density of 492 μE m^−2s^−2 using 54W/835/HO high fluorescent bulbs (Phillips, Holland). After 6 days, the heat stress-treated plants were returned to the original growth chamber maintained at non-heat stress conditions to develop to maturity.

[1] = 1×10^−4 M, 6 days of heat stress (33° C. 6 h/day)
[2] = 1×10^−5 M, 6 days of heat stress (33° C. 6 h/day)
[3] = 1×10^−6 M, 6 days of heat stress (33° C. 6 h/day)

Cc1cccc2[nH]cc(CC(=O)O)c12 [4-ME-IAA, 4-methyl-indole-3-acetic acid]
Length of spike peduncle [1]: 70 ± 10 mm | Number of spikes per plant [1]: 25 ± 3 | Seed number per plant [1]: 130 ± 23 | Seed number per spike [1]: 5 ± 1 | Seed weight per plant [1]: 4.08 ± 0.67 g | increase in seed number per plant vs control (1×10^−4 M, heat stress): 73% | increase in seed weight per plant vs control (1×10^−4 M, heat stress): 72% | Length of spike peduncle (1×10^−4 M, non-heat stress): 62 ± 5 mm | Number of spikes per plant (1×10^−4 M, non-heat stress): 25 ± 1 | Seed number per plant (1×10^−4 M, non-heat stress): 163 ± 32 | Seed number per spike (1×10^−4 M, non-heat stress): 7 ± 1 | Seed weight per plant (1×10^−4 M, non-heat stress): 4.87 ± 0.95 g | Length of spike peduncle [2]: 57 ± 5 mm | Number of spikes per plant [2]: 24 ± 4 | Seed number per plant [2]: 57 ± 18 | Seed number per spike [2]: 3 ± 1 | Seed weight per plant [2]: 1.83 ± 0.57 g | Length of spike peduncle (1×10^−5 M, non-heat stress): 82 ± 7 mm | Number of spikes per plant (1×10^−5 M, non-heat stress): 22 ± 3 | Seed number per plant (1×10^−5 M, non-heat stress): 256 ± 42 | Seed number per spike (1×10^−5 M, non-heat stress): 12 ± 1 | Seed weight per plant (1×10^−5 M, non-heat stress): 7.56 ± 1.36 g | Length of spike peduncle [3]: 72 ± 7 mm | Number of spikes per plant [3]: 28 ± 3 | Seed number per plant [3]: 151 ± 43 | Seed number per spike [3]: 5 ± 1 | Seed weight per plant [3]: 4.49 ± 1.25 g | increase in number of floral spikes per plant vs control (1×10^−6 M, heat stress): 40% | increase in seed number per plant vs control (1×10^−6 M, heat stress): 101% | increase in seed weight per plant vs control (1×10^−6 M, heat stress): 90% | Length of spike peduncle (1×10^−6 M, non-heat stress): 63 ± 6 mm | Number of spikes per plant (1×10^−6 M, non-heat stress): 24 ± 3 | Seed number per plant (1×10^−6 M, non-heat stress): 254 ± 81 | Seed number per spike (1×10^−6 M, non-heat stress): 10 ± 2 | Seed weight per plant (1×10^−6 M, non-heat stress): 8.17 ± 2.66 g
